Data reported in patent publication US20060210504A1, “Compositions and methods for inhibiting eccrine perspiration in humans” (priority 2001, published 2006).

Assays:
[1] = tested on: healthy female volunteers; assay: Safety and tolerance assessment on topical application to the axilla; format: in vivo, human
Method: (§1) The antiperspirant efficacy and safety of glycopyrrolate, a quaternary ammonium salt, was tested pursuant to protocol prescribed by the Food and Drug Administration, 21CFR Part 10.90 The OTC Antiperspirant Tentative Final Monograph. So as to separate vehicle from drug effects, glycopyrrolate was presented as a simple solution in varying concentrations of 0.3%, 1% and 3% weight per volume. In each treatment group as listed below, the glycopyrrolate solution and a placebo of distilled water were applied to the axilla of healthy female volunteers. In particular, the placebo was applied to one armpit while the test solution was applied to the other armpit of a given volunteer. The designation of armpits (namely, right or left) for the application of placebo vs. solution was randomized according to the FDA protocol. In the placebo Group B, distilled water was applied to both axilla of each volunteer. Treatments were applied once daily for five consecutive days.
(§2) The clinical study was conducted among 37 healthy female volunteers. The testing further conformed to ICH guidelines and the requirements of the 1964 Declaration of Helsinki and its subsequent amendments. The study was a pilot, single-center, randomized, controlled, double-blind assessment of the safety, tolerability and antiperspirant efficacy of glycopyrrolate when applied to the axilla of healthy female volunteers.
(§3) The antiperspirant efficacy evaluation was performed approximately one hour after the fifth treatment using a standard hot room protocol. Safety and tolerance were measured by assessment of blood chemistry and hematology, electrocardiograms, daily monitoring of heart rate, blood pressure and body temperature, assessment of visual effects and dermal irritancy, and subjective assessment of tolerance.

[2] = tested on: sweat production in the axilla (eccrine sweat glands); assay: Antiperspirant efficacy evaluation, standard hot room protocol (FDA OTC Antiperspirant Tentative Final Monograph); format: in vivo, human (healthy female volunteers); conditions: for mean reduction in sweat production: axilla, once daily for five days, about one hour after fifth treatment
Method: as §1
The groups comprised the following: • Group A—0.3% glycopyrrolate versus distilled water; • Group B—Placebo (distilled water applied to both axilla); • Group C—1% glycopyrrolate versus distilled water; • Group D—3% glycopyrrolate versus distilled water;
as §2
The study was conducted in two cohorts of volunteers. The first cohort comprised fourteen (14) subjects, with […] subjects assigned to placebo Group B and ten (10) subjects assigned to 0.3% Group A.
Nine (9) days following the completion of the first cohort, a second cohort of twenty-three (23) subjects were tested, with three (3) subjects assigned to placebo Group B, ten (10) subjects assigned to 1% Group C, and ten (10) subjects assigned to 3% Group D.
as §3

[3] = 0.3%, 1% and 3% w/v topical to axilla, once daily for five days
[4] = 1% w/v simple solution (Group C) vs distilled water
[5] = 3% w/v simple solution (Group D) vs distilled water

## C[N+]1(C)CCC(OC(=O)C(O)(c2ccccc2)C2CCCC2)C1 (stereo not drawn) [glycopyrrolate]
[1]; [3]
  pupillary dilation or other systemic symptoms of anticholinergic agents: no signs of pupillary dilation or other systemic symptoms
  serious adverse events: No serious adverse events
[1]; reviewed by principal investigator and attendant cardiologist
  adverse events, clinical significance: clinically non-significant
[2]; 0.3% concentration
  antiperspirant efficacy in words: essentially ineffective
[2]; 0.3% concentration, two subjects
  inhibition enjoyed by two subjects: 0.50 % inhibition
[2]; 0.3% w/v simple solution (Group A) vs distilled water
  statistical significance of reduction in sweat production: no statistically significant reduction in sweat production
[2]; 1% group
  binomial criteria of 95% confidence with at least 50% of the population showing at least 20% reduction in sweating: met the binomial criteria
[2]; 1% treatment group
  range of effect (inhibition of sweating across subjects): −16-to 54 % inhibition
[2]; [4]
  statistical significance of reduction in sweat production: significant sweat reduction
  mean reduction in sweat production: 32.85%±9.81
[2]; 3% group
  binomial criteria of 95% confidence with at least 50% of the population showing at least 20% reduction in sweating: met the binomial criteria
[2]; 3% treatment group
  range of effect (inhibition of sweating across subjects): −13 to 90 % inhibition
[2]; [5]
  statistical significance of reduction in sweat production: significant sweat reduction
  mean reduction in sweat production: 54.72%±20.23
[2]; simple solution, 0.3%, 1% and 3%, highest efficacy at 3%
  dose dependence of antiperspirant effect: dose-dependent antiperspirant effect
